# Data as given in the NIST ThermoML archive (doi:10.1016/j.tca.2006.02.034).
# Numbers after ± are expanded uncertainties.
# Settings: Crystal; Adiabatic calorimetry
smiles,measurement,value
CCCC[n+]1ccn(C)c1.O=S(=O)([N-]S(=O)(=O)C(F)(F)F)C(F)(F)F,Triple point temperature,270.22 ± 0.05 K
